The record followed here is patent US11433069B2, “Methods of use and pharmaceutical combinations comprising histone deacetylase inhibitors and JAK1/2 inhibitors” (University of Modena and Reggio Emilia, priority 2017, dated 2022).

One may read the IC50 as the concentration needed to halve the response being measured.

Test [1] deals with α-tubulin. Kind of test: Western blot of acetylation of α-tubulin. The test is classed as cell-based. The note with it: lymphoma cells; extent not further modified by momelotinib. As for the experimental part: Lymphoma cell lines treated with 1 μM of momelotinib and 4 μM of citarinostat alone and in combination. […] Whole-cell lysates were subjected to western blotting using the indicated Abs. Tubulin was used to normalize protein loading. […] Whole-cell lysates were subjected to western blotting using the indicated Abs. Tubulin was used to normalize protein loading.
The combination treatment with momelotinib and Compound A leads JAK2/STAT3 pathway inactivation.
Background: In western blotting, separated proteins are transferred to a membrane and probed.

The test system of test [2] is 12 hematological cancer cell lines. Kind of test: MTT cell viability, single agents. Type of test: cell-based. The note with it: panel of 12 lymphoid malignant cell lines, 24-48 hours, range over cell lines. As for the experimental part: Momelotinib induces dose and time dependent manner growth inhibition in a panel of twelve lymphoid malignant cell lines. Multiple myeloma cells (U266, RPM18266), B-cell lymphoma cells (RL, WSU-NHL, Karpas-422), chronic lymphocytic leukemia cells (MEC-1), mantle cell lymphoma cells (Granta-519, Jeko-1), cutaneous T cell lymphoma cells (Hut-78), anaplastic large cell lymphoma cells (Karpas-299), and Hodgkin lymphoma cells (L-1236, L-540) were treated with a serial dosage of momelotinib (1-10 μM) for 24-48 hours.
Momelotinib and Compound A alone and in combination were tested in 12 hematological cancer cell lines: B-cell lymphomas (WSU-NHL, RL, Karpas-422), mantle cell lymphoma (Granta-519, Jeko-1), cutaneous T cell lymphoma (Hut-78), anaplastic large cell lymphoma (Karpas-299), Hodgkin lymphoma (L-1236, L-540), multiple myeloma (U266, RPM18266) and chronic lymphocytic leukemia (MEC-1). With the exception of GRANTA-519, hematological cancer cell lines were cultured in RPMI-1640 supplemented with 10% fetal bovine serum (FBS), 2 mM glutamine, and 100 U/mL penicillin and streptomycin. For Granta-519 cells, DMEM was used in place of RPMI-1640.
Cell viability was evaluated by MTT colorimetric assay following the manufacturer's instructions. […]

In the case of `O=C(CCCCCCNC(=O)c1cnc(N(c2ccccc2)c2ccccc2Cl)nc1)NO` [Compound A, 2-((2-chlorophenyl)(phenyl)amino)-N-(7-(hydroxyamino)-7-oxoheptyl)pyrimidine-5-carboxamide], in test [1], the “acetylation of α-tubulin” value is on record as “induced the acetylation of α-tubulin”. Moreover, the IC50 in test [2] lay in the range of 1.51 to 60 µM. With `N#CCNC(=O)c1ccc(-c2ccnc(Nc3ccc(N4CCOCC4)cc3)n2)cc1` [Momelotinib, momelotinib, reference compound], the half-inhibitory concentration (IC50) in test [2] lay within 1.8 to 9.6 µM.
